Article PMC10467108, “Of Seven New K^+ Channel Inhibitor Peptides of Centruroides bonito, α-KTx 2.24 Has a Picomolar Affinity for Kv1.2” (Toxins, 2023)
Where a SMILES comes first, the peptide text is derived from it. Bridges are numbered along the chain shown (N, C = ends).

How the values were obtained:
Format in all cases: cell-based
hKv1.1 = target: T1, hKv1.1 (Homo sapiens, UniProt Q09470); experiment: Whole-cell patch-clamp of Kv1.1 currents in transiently transfected CHO cells
T1 construct: host or cells: CHO cells, transient transfection (Lipofectamine 2000)
Description: (§1) Macroscopic Kv1.1 and Kv1.2 currents were measured in transiently transfected CHO cells. For Kv1.3 current recording, human T lymphocytes were activated by Phytohemagglutinin A (PHA) to increase Kv1.3 channel expression, and micro-pipettes were filled with Ca^2+-free solution to prevent KCa3.1 channel activation. K^+ currents were evoked by applying 15-ms-long depolarization pulses to +50 mV from a holding potential of −120 mV except for Kv1.2, as it has highly variable activation kinetics; therefore, 15–500 ms-long pulses were applied to maximize the open probability of Kv1.2 channel. CboK peptide toxins were dissolved in a freshly prepared extracellular solution and applied to the whole-cell patch-clamped cells using a micro perfusion system at 200 μL/min flow rate.
(§2) CHO cells were transiently transfected by using Lipofectamine 2000 kit (Invitrogen, Carlsbad, CA, USA), as per the manufacturer’s protocol with vector pCMV6-AC-GFP (cat# RG211000 and RC222200; OriGene Technologies, Rockville, MD, USA) encoding hKv1.1 (hKCNA1 gene) or hKv1.2 (hKCNA2 gene) ion channels. Cells were grown under standard conditions in an incubator at 37 °C and 5% CO2 for 24 h. GFP-positive transfected cells were identified by utilizing a Nikon TMS fluorescence microscope (Nikon, Tokyo, Japan) using bandpass filters of 455–495 nm and 515–555 nm for excitation and emission, respectively.
(§3) The patch-clamp technique was used for measuring whole-cell currents in voltage-clamped mode using standard protocols. Electrophysiological recordings were acquired by using Multiclamp 700B amplifier connected to a personnel computer with an Axon Digidata1440 digitizer (Molecular Devices, Sunnyvale, CA, USA). Pipettes were pulled from GC150F-15 borosilicate capillaries (Harvard Apparatus, Kent, UK) having 3−5 MΩ tip resistance in the bath solution. All current recordings were carried out at room temperature (20−25 °C) and only those currents were recorded and subjected to analyses when the leak current at holding potential was <5% of peak current at the test potential. Current traces were lowpass-filtered by utilizing the built-in analog four-pole Bessel filters of the amplifiers and were sampled at 20 kHz which is at least twice the filter cut-off frequency. A gravity-driven perfusion system was used to perfuse the cells with control and test solutions and excess fluid was removed continuously through vacuum suction. The extracellular solution (bath solution) contained 145 mM NaCl, 5.5 mM glucose, 5 mM KCl, 2.5 mM CaCl2, 1 mM MgCl2, and 10 mM HEPES, having pH of 7.35 and an osmolarity between 302 and 308 mOsM/L. Toxins were dissolved in bath solution at different molar concentrations and supplemented with 0.1 mg/mL of bovine serum albumin BSA (Sigma-Aldrich, Budapest, Hungary). The intracellular solution (pipette filling) was comprised of 140 mM KF, 2 mM MgCl2, 1 mM CaCl2, 10 mM HEPES, and 11 mM EGTA, with a pH of 7.22 and an osmolarity of ~295 mOsM/L.
(§4) Generally, to evoke the Kv1.xcurrents, 15-ms-long depolarization pulses to +50 mV from a holding potential of −120 mV were applied, and the current traces were recorded after every 15 s. However, in the case of Kv1.2, due to its variable activation kinetics, the duration of the depolarization pulse was set between 15 and 500 ms to attain the saturated peak current.

Kv1.3 [1] = target: T2, Kv1.3 (Homo sapiens, UniProt P22001); experiment: Whole-cell patch-clamp of Kv1.3 currents in PHA-activated human T lymphocytes; details: 1 µM toxin, end of 15-ms pulse to 0 mV (Figure 6E)
T2 construct: endogenous in cells

hKv1.2 = target: T3, hKv1.2 (Homo sapiens, UniProt P16389); experiment: Whole-cell patch-clamp of Kv1.2 currents in transiently transfected CHO cells; details: Hill fit of RCF vs toxin concentration, n ≥ 3
T3 construct: GFP (C); host or cells: CHO cells, transient transfection (Lipofectamine 2000)
Description: as §1, §2, §3, §4

Kv1.3 [2] = target: T2, Kv1.3; experiment: Whole-cell patch-clamp of Kv1.3 currents in PHA-activated human T lymphocytes
Description: as §1
Isochronal RCF data points obtained this way (isochronal RCF = I4ms/I4ms,0 where I4ms,0 and I4ms are the currents at 4 ms time point in the absence and presence of CboK peptides, respectively) at different toxin concentrations were fitted with the Hill equation to obtain concentration–response curves as shown in Figure 6H.
Human peripheral venous blood was acquired from anonymous healthy volunteers from the blood bank. Blood samples were collected by having approval from the Ethical Committee of the Hungarian Medical Research Council (36255-6/2017/EKU). PBMCs were separated by Histopaque 1077 (Sigma-Aldrich, Budapest, Hungary) separation technique, and isolated cells, at the density of 5 × 10^5 cells, were cultured in RPMI 1640 media (Gibco, Grand Island, NY, USA) supplemented with 10% FBS (Sigma-Aldrich, Budapest, Hungary), 2 mM L-glutamine, […], and […] penicillin in a humidified incubator at 37 °C and 5% CO2 for 3–6 days. A measure of 2, 5, or 10 μg/mL of Phytohemagglutinin A (PHA) (Sigma-Aldrich, Budapest, Hungary) was added in cultured cells to activate the PBMCs and upregulate the Kv1.3 expression.
as §3, with “suction.” for “suction. The extracellular solution (bath solution) contained 145 mM NaCl, 5.5 mM glucose, 5 mM KCl, 2.5 mM CaCl2, 1 mM MgCl2, and 10 mM HEPES, having pH of 7.35 and an osmolarity between 302 and 308 mOsM/L. Toxins were dissolved in bath solution at different molar concentrations and supplemented with 0.1 mg/mL of bovine serum albumin BSA (Sigma-Aldrich, Budapest, Hungary). The intracellular solution (pipette filling) was comprised of 140 mM KF, 2 mM MgCl2, 1 mM CaCl2, 10 mM HEPES, and 11 mM EGTA, with a pH of 7.22 and an osmolarity of ~295 mOsM/L.”

T2 sequence (P22001 whole entry): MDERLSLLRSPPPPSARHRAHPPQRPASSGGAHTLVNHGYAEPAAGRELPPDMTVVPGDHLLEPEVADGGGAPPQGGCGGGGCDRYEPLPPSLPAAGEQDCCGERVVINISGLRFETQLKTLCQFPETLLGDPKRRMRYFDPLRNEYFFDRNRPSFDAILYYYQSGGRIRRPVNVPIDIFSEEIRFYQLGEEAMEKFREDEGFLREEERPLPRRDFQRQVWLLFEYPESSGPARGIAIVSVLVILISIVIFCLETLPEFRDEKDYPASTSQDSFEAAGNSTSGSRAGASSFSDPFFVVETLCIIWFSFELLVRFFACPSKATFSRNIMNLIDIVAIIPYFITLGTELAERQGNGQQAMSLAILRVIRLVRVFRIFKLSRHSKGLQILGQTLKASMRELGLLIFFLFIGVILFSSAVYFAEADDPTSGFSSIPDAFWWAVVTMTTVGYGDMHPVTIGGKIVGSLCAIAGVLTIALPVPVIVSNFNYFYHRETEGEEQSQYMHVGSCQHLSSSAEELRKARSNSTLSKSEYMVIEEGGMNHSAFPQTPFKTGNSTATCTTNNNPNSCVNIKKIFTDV
T1 sequence (Q09470 whole entry): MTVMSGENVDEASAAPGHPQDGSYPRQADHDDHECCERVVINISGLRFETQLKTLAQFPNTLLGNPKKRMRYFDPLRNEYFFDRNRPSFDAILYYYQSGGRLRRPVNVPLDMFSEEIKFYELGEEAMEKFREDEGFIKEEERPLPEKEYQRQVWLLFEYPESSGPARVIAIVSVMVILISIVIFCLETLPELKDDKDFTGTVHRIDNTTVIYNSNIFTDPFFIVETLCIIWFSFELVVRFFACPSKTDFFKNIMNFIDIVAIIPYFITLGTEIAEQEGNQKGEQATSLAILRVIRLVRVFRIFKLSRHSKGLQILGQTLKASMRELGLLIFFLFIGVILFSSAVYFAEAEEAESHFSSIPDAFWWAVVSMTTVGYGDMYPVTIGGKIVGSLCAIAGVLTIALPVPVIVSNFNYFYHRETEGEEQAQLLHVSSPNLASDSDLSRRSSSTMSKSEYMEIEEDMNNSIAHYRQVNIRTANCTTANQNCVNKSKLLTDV
T3 sequence (P16389 whole entry): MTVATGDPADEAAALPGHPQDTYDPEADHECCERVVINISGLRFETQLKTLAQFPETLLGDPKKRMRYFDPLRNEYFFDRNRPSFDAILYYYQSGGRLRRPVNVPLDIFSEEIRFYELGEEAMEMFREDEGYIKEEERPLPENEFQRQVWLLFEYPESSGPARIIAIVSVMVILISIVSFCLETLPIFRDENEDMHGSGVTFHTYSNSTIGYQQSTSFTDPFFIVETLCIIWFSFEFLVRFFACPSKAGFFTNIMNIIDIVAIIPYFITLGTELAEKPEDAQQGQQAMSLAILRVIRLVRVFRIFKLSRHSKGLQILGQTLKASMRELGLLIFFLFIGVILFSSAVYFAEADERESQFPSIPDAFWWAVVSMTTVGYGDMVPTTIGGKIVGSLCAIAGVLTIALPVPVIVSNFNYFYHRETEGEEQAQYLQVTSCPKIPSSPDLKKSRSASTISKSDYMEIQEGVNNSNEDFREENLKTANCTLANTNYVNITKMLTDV

CC[C@H](C)[C@@H]1NC(=O)[C@@H]2CSSC[C@H](NC(=O)[C@@H](NC(=O)[C@@H](N)[C@@H](C)O)C(C)C)C(=O)N[C@@H](C(C)C)C(=O)N[C@@H](Cc3ccc(O)cc3)C(=O)N[C@@H](CCCNC(=N)N)C(=O)N[C@@H]([C@@H](C)O)C(=O)N[C@H]3CSSC[C@H](NC(=O)[C@H](C)NC(=O)[C@H](CC(N)=O)NC(=O)[C@H](CC(N)=O)NC1=O)C(=O)N[C@@H](CCCCN)C(=O)N[C@H](C(=O)N[C@@H](Cc1ccc(O)cc1)C(=O)N1CCC[C@H]1C(=O)N[C@@H](Cc1ccc(O)cc1)C(=O)O)CSSC[C@H](NC(=O)[C@H](CC(=O)O)NC(=O)[C@H](CCCCN)NC(=O)[C@H](CC(=O)O)NC3=O)C(=O)N[C@@H](CCCCN)C(=O)N[C@@H](CCCNC(=N)N)C(=O)N[C@@H](CCCNC(=N)N)C(=O)NCC(=O)N[C@@H](Cc1ccc(O)cc1)C(=O)N[C@@H](CCCNC(=N)N)C(=O)N[C@@H](CO)C(=O)NCC(=O)N[C@@H](CCCCN)C(=O)N2 [CboK2] (H-TVCVYRTCDKDCKRRGYRSGKCINNACKCYPY-OH; disulfide 3-22, 8-27, 12-29)
effect on Kv1.1 currents (hKv1.1; 100 nM toxin): did not block
Kd (hKv1.1; this study, screened at 100 nM, read-out: Kd Values Kv1.1 (symbol)): > 0.1 µM
remaining current fraction (RCF) of Kv1.3 at 0 mV (Kv1.3 [1]): ~ 0.23
Kd (hKv1.2; cumulative application, equilibrium block, pulses to +50 mV from -120 mV, read-out: Kd for Kv1.2): 0.000763 µM
Hill coefficient H, Kv1.2 block (hKv1.2): 1.5
remaining current fraction (RCF) of Kv1.3 at +50 mV (Kv1.3 [2]; 1 µM toxin, end of 15-ms pulse to +50 mV (Figure 6C)): ~ 0.34
Hill coefficient H, Kv1.3 block (Kv1.3 [2]; Hill fit of isochronal RCF (4 ms), n ≥ 3): 0.8
Kd (Kv1.3 [2]; Hill fit of isochronal RCF (current at 4 ms), 15-ms pulses to +50 mV from -120 mV, n ≥ 3, read-out: Kd for Kv1.3): 0.171 µM
